Patent publication US7087768B2, “Fumagillol derivatives and preparing method thereof” (Equispharm Co., Ltd., priority 2001, dated 2006)
Values after ≈ are worked out from the molar mass of the structure shown.

Each compound was assayed on HUVECs (human umbilical vein endothelial cells) (assay: Inhibitory effect of fumagillol derivative on HUVEC cell growth (colorimetry)). Conditions: Homo sapiens, HUVEC.
Type: cell-based
Method: Using the HUVECs (human umbilical vein endothelial), the effect of the fumagillol derivative of the present invention on cell growth was evaluated.
The HUVECs were added to M199 medium supplemented with 20% FBS (fetal bovine serum), 100 U/ml penicillin, 100 μg/ml streptomycin, 1.5 g/L sodium bicarbonate, 0.1 mg/ml endothelial cell growth supplement (Sigma) and 0.1 mg/ml heparin (Sigma), after which the cells were incubated in an incubator at 37° C. under 5% CO2. Cells were subcultured a maximum of 8 times before being discarded.
In order to evaluate inhibitory activity of the fumagillin derivative on growth of HUVECs, the inventive compound was dissolved in DMSO and its concentration was adjusted from 10 mM to 1 mM. Cells were aliquotted to 96 well plates at a density of 2×10^3 cells per well and incubated for about 12–24 hours to be properly attached to the plate. Thereafter, the medium was replaced with new medium. The cells were treated with the compound obtained from each of the above examples at various concentration ranges of from 10 μM to […], and cultured for 2–3 days, followed by removing 100 μl of the medium from each well.
Colorimetry was performed to determine the extent of cell growth. The cells on each plate was added with 20 μl of aqueous one solution and then incubated at 37° C. under 5% CO2 for 2 hours. Using a 96-well plate reader, absorption was measured at 490 nm.
As such, a conventional TNP-470 having angiogenesis inhibitory effect was used as a control.

In the case of CO[C@@H]1[C@H](OC(=O)CNCCBr)CC[C@]2(CO2)[C@H]1[C@@]1(C)OC1CC=C(C)C (stereo partly shown) [Ex. 61, 6-O-(2-bromoethylamino)acetyl fumagillol], the IC50 is reported as 2800 ng/mL (≈ 6270 nM).

Same assay, conditions: Homo sapiens, HUVEC, HUVEC growth, cultured 2–3 days with compound, absorption at 490 nm; read-out: IC50

Going from CO[C@@H]1[C@H](OC(=O)CNc2ccc(OCCO)cc2)CC[C@]2(CO2)[C@H]1[C@@]1(C)OC1CC=C(C)C (stereo partly shown) [Ex. 35, 6-O-(4-hydroxyethoxyaniline)acetyl fumagillol] to COc1ccc(NCC(=O)O[C@@H]2CC[C@]3(CO3)[C@@H]([C@@]3(C)OC3CC=C(C)C)[C@@H]2OC)cn1 (stereo partly shown) [Ex. 36, 6-O-(5-amino-2-methoxypyridine)acetyl fumagillol], the IC50 falls from 116 ng/mL (≈ 244 nM) to 0.021 ng/mL (≈ 0.047 nM) (5500-fold).

Going from COc1ccc(NCC(=O)O[C@@H]2CC[C@]3(CO3)[C@@H]([C@@]3(C)OC3CC=C(C)C)[C@@H]2OC)nn1 (stereo partly shown) [Ex. 38, 6-O-(3-methoxy-6-aminopyridazine)acetyl fumagillol] to CCNCC(=O)O[C@@H]1CC[C@]2(CO2)[C@@H]([C@@]2(C)OC2CC=C(C)C)[C@@H]1OC (stereo partly shown) [Ex. 41, 6-O-(ethylamino)acetyl fumagillol], the IC50 rises from 0.019 ng/mL (≈ 0.0425 nM) to 20 ng/mL (≈ 54.4 nM) (1100-fold).

Going from CO[C@@H]1[C@H](OC(=O)CNC(C)C)CC[C@]2(CO2)[C@H]1[C@@]1(C)OC1CC=C(C)C (stereo partly shown) [Ex. 42, 6-O-(isopropylamino)acetyl fumagillol] to CCC(C)NCC(=O)O[C@@H]1CC[C@]2(CO2)[C@@H]([C@@]2(C)OC2CC=C(C)C)[C@@H]1OC (stereo partly shown) [Ex. 45, 6-O-(sec-butylamino)acetyl fumagillol], the IC50 rises from 12 ng/mL (≈ 31.5 nM) to 370 ng/mL (≈ 935 nM) (31-fold).

CCCNCC(=O)O[C@@H]1CC[C@]2(CO2)[C@@H]([C@@]2(C)OC2CC=C(C)C)[C@@H]1OC (stereo partly shown) [Ex. 43, 6-O-(propylamino)acetyl fumagillol] and CCCCNCC(=O)O[C@@H]1CC[C@]2(CO2)[C@@H]([C@@]2(C)OC2CC=C(C)C)[C@@H]1OC (stereo partly shown) [Ex. 44, 6-O-(1-butylamino)acetyl fumagillol] are within 1.5-fold of each other in IC50: 2400 ng/mL (≈ 6290 nM) for the first, 3200 ng/mL (≈ 8090 nM) for the second.

Going from CCC(C)CNCC(=O)O[C@@H]1CC[C@]2(CO2)[C@@H]([C@@]2(C)OC2CC=C(C)C)[C@@H]1OC (stereo partly shown) [Ex. 46, 6-O-(2-methyl-butylamino)acetyl fumagillol] to CO[C@@H]1[C@H](OC(=O)CNCC(C)N(C)C)CC[C@]2(CO2)[C@H]1[C@@]1(C)OC1CC=C(C)C (stereo partly shown) [Ex. 69, 6-O-(2-dimethylamino-propylamino)acetyl fumagillol], the IC50 falls from 2600 ng/mL (≈ 6350 nM) to 260 ng/mL (≈ 612 nM) (10-fold).

Going from CCCCCNCC(=O)O[C@@H]1CC[C@]2(CO2)[C@@H]([C@@]2(C)OC2CC=C(C)C)[C@@H]1OC (stereo partly shown) [Ex. 48, 6-O-(pentylamino)acetyl fumagillol] to CCCCC(C)NCC(=O)O[C@@H]1CC[C@]2(CO2)[C@@H]([C@@]2(C)OC2CC=C(C)C)[C@@H]1OC (stereo partly shown) [Ex. 51, 6-O-(1-methyl-pentylamino)acetyl fumagillol], the IC50 rises from 3000 ng/mL (≈ 7320 nM) to 32000 ng/mL (≈ 75500 nM) (11-fold).

Going from CCCC(C)NCC(=O)O[C@@H]1CC[C@]2(CO2)[C@@H]([C@@]2(C)OC2CC=C(C)C)[C@@H]1OC (stereo partly shown) [Ex. 49, 6-O-(1-methyl-butylamino)acetyl fumagillol] to CO[C@@H]1[C@H](OC(=O)CNC(C)CCC=C(C)C)CC[C@]2(CO2)[C@H]1[C@@]1(C)OC1CC=C(C)C (stereo partly shown) [Ex. 58, 6-O-(1,5-dimethyl-4-hexenylamino)acetyl fumagillol], the IC50 rises from 44 ng/mL (≈ 107 nM) to 415 ng/mL (≈ 923 nM) (9.4-fold).

First: CCC(CC)NCC(=O)O[C@@H]1CC[C@]2(CO2)[C@@H]([C@@]2(C)OC2CC=C(C)C)[C@@H]1OC (stereo partly shown) [Ex. 50, 6-O-(1-ethyl-propylamino)acetyl fumagillol]
Second: CCC(C)C(C)NCC(=O)O[C@@H]1CC[C@]2(CO2)[C@@H]([C@@]2(C)OC2CC=C(C)C)[C@@H]1OC (stereo partly shown) [Ex. 52, 6-O-(1,2-dimethylbutylamino)acetyl fumagillol]
The IC50 of the first is 12-fold lower: 24 ng/mL (≈ 58.6 nM) for the first, 290 ng/mL (≈ 685 nM) for the second.

First: CO[C@@H]1[C@H](OC(=O)CNC(C)C(C)(C)C)CC[C@]2(CO2)[C@H]1[C@@]1(C)OC1CC=C(C)C (stereo partly shown) [Ex. 53, 6-O-(1,2,2-trimethylpropylamino)acetyl fumagillol]
Second: COC(=O)C(NCC(=O)O[C@@H]1CC[C@]2(CO2)[C@@H]([C@@]2(C)OC2CC=C(C)C)[C@@H]1OC)C(C)(C)C (stereo partly shown) [Ex. 75, 6-O-(methyl-2-amino-3,3-dimethylbutanoate)acetyl fumagillol]
The IC50 of the first is 15-fold lower: 162 ng/mL (≈ 382 nM) for the first, 2400 ng/mL (≈ 5130 nM) for the second.

Going from CC/C=C(C)/C=C/CNCC(=O)O[C@@H]1CC[C@]2(CO2)[C@@H]([C@@]2(C)OC2CC=C(C)C)[C@@H]1OC (stereo partly shown) [Ex. 57, 6-O-(4-methyl-hepta-2,4-dienylamino)acetyl fumagillol] to CO[C@@H]1[C@H](OC(=O)CNCC(C)=O)CC[C@]2(CO2)[C@H]1[C@@]1(C)OC1CC=C(C)C (stereo partly shown) [Ex. 71, 6-O-(2-oxo-propylamino)acetyl fumagillol], the IC50 falls from 420 ng/mL (≈ 938 nM) to 260 ng/mL (≈ 657 nM) (1.6-fold).

Compared with C#CC(C)(C)NCC(=O)O[C@@H]1CC[C@]2(CO2)[C@@H]([C@@]2(C)OC2CC=C(C)C)[C@@H]1OC (stereo partly shown) [Ex. 59, 6-O-(1,1-dimethyl-2-propinylamino)acetyl fumagillol], CO[C@@H]1[C@H](OC(=O)CNC(C)(C)CC(C)=O)CC[C@]2(CO2)[C@H]1[C@@]1(C)OC1CC=C(C)C (stereo partly shown) [Ex. 72, 6-O-(1,1-dimethyl-3-oxobutylamino)acetyl fumagillol] is 1.9-fold higher in IC50: 174 ng/mL (≈ 429 nM) for the first, 330 ng/mL (≈ 754 nM) for the second.

First: CO[C@@H]1[C@H](OC(=O)CNC#CCl)CC[C@]2(CO2)[C@H]1[C@@]1(C)OC1CC=C(C)C (stereo partly shown) [Ex. 62, 6-O-(chloroethynylamino)acetyl fumagillol]
Second: CO[C@@H]1[C@H](OC(=O)CCl)CC[C@]2(CO2)[C@H]1[C@@]1(C)OC1CC=C(C)C (stereo partly shown) [Intermediate, 6-O-(chloro)acetyl fumagillol]
The IC50 of the first is 5.9-fold lower: 340 ng/mL (≈ 854 nM) for the first, 2000 ng/mL (≈ 5570 nM) for the second.

Compared with CO[C@@H]1[C@H](OC(=O)CNC2CC2)CC[C@]2(CO2)[C@H]1[C@@]1(C)OC1CC=C(C)C (stereo partly shown) [Ex. 63, 6-O-(cyclopropylamino)acetyl fumagillol], CO[C@@H]1[C@H](OC(=O)CNC2CCC2)CC[C@]2(CO2)[C@H]1[C@@]1(C)OC1CC=C(C)C (stereo partly shown) [Ex. 64, 6-O-(cyclobutylamino)acetyl fumagillol] is 8.8-fold higher in IC50: 0.008 ng/mL (≈ 0.0211 nM) for the first, 0.07 ng/mL (≈ 0.178 nM) for the second.

Going from CO[C@@H]1[C@H](OC(=O)CNC2CCCC2)CC[C@]2(CO2)[C@H]1[C@@]1(C)OC1CC=C(C)C (stereo partly shown) [Ex. 65, 6-O-(cyclopentylamino)acetyl fumagillol] to CO[C@@H]1[C@H](OC(=O)CNC2CCCCC2)CC[C@]2(CO2)[C@H]1[C@@]1(C)OC1CC=C(C)C (stereo partly shown) [Ex. 66, 6-O-(cyclohexylamino)acetyl fumagillol], the IC50 falls from 250 ng/mL (≈ 613 nM) to 0.6 ng/mL (≈ 1.42 nM) (420-fold).

Compared with CO[C@@H]1[C@H](OC(=O)CNC2CCC(C(C)(C)C)CC2)CC[C@]2(CO2)[C@H]1[C@@]1(C)OC1CC=C(C)C (stereo partly shown) [Ex. 67, 6-O-(4-tert-butyl-cyclohexylamino)acetyl fumagillol], CO[C@@H]1[C@H](OC(=O)CNCC(C)(C)OC)CC[C@]2(CO2)[C@H]1[C@@]1(C)OC1CC=C(C)C (stereo partly shown) [Ex. 70, 6-O-(2-methoxy-2-methyl-propylamino)acetyl fumagillol] is 3000-fold higher in IC50: 0.06 ng/mL (≈ 0.126 nM) for the first, 178 ng/mL (≈ 418 nM) for the second.

Compared with CO[C@@H]1[C@H](OC(=O)CNC(C)CN(C)C)CC[C@]2(CO2)[C@H]1[C@@]1(C)OC1CC=C(C)C (stereo partly shown) [Ex. 68, 6-O-(2-dimethylamino-1-methylethylamino)acetyl fumagillol], COC(=O)C(C)NCC(=O)O[C@@H]1CC[C@]2(CO2)[C@@H]([C@@]2(C)OC2CC=C(C)C)[C@@H]1OC (stereo partly shown) [Ex. 74, 6-O-(alaninemethylesteramino)acetyl fumagillol] is 3.3-fold higher in IC50: 240 ng/mL (≈ 565 nM) for the first, 800 ng/mL (≈ 1880 nM) for the second.

First: CCOC(=O)CNCC(=O)O[C@@H]1CC[C@]2(CO2)[C@@H]([C@@]2(C)OC2CC=C(C)C)[C@@H]1OC (stereo partly shown) [Ex. 73, 6-O-(ethyl-2-aminoacetate)acetyl fumagillol]
Second: COC(CNCC(=O)O[C@@H]1CC[C@]2(CO2)[C@@H]([C@@]2(C)OC2CC=C(C)C)[C@@H]1OC)OC (stereo partly shown) [Ex. 77, 6-O-(2,2-dimethoxyethylamino)acetyl fumagillol]
The IC50 of the first is 3.6-fold higher: 1200 ng/mL (≈ 2820 nM) for the first, 330 ng/mL (≈ 772 nM) for the second.

In the case of CO[C@@H]1[C@H](OC(=O)NC(=O)CCl)CC[C@]2(CO2)[C@H]1[C@@]1(C)O[C@@H]1CC=C(C)C [TNP-470, reference compound], the IC50 is reported as 29 ng/mL (≈ 72.2 nM).

Same assay, conditions: Homo sapiens; HUVEC growth, cultured 2–3 days with compound, absorption at 490 nm; read-out: IC50

Compared with COc1cnc(NCC(=O)O[C@@H]2CC[C@]3(CO3)[C@@H]([C@@]3(C)OC3CC=C(C)C)[C@@H]2OC)nc1 (stereo partly shown) [Ex. 37, 6-O-(5-methoxypyrimidine-2-amino)acetyl fumagillol], C=C(C)CNCC(=O)O[C@@H]1CC[C@]2(CO2)[C@@H]([C@@]2(C)OC2CC=C(C)C)[C@@H]1OC (stereo partly shown) [Ex. 56, 6-O-(2-methyl-allylamino)acetyl fumagillol] is 1600-fold higher in IC50: 0.017 ng/mL (≈ 0.038 nM) for the first, 28 ng/mL (≈ 71.2 nM) for the second.

First: CO[C@@H]1[C@H](OC(=O)CNC(C(C)C)C(C)C)CC[C@]2(CO2)[C@H]1[C@@]1(C)OC1CC=C(C)C (stereo partly shown) [Ex. 54, 6-O-(1-isopropyl-2-methylpropylamino)acetyl fumagillol]
Second: C=CCC(NCC(=O)O[C@@H]1CC[C@]2(CO2)[C@@H]([C@@]2(C)OC2CC=C(C)C)[C@@H]1OC)C(=O)OC (stereo partly shown) [Ex. 76, 6-O-(allylglycinemethylester)acetyl fumagillol]
The IC50 of the first is 140-fold lower: 11 ng/mL (≈ 25.1 nM) for the first, 1490 ng/mL (≈ 3300 nM) for the second.
